Results from US12312332B2 (Merck Sharp & Dohme LLC., priority 2019, dated 2025).

Target: T1, human OX2R (Homo sapiens, UniProt O43614)
T1 construct: expressed in transfected cells; host or cells: Chinese hamster ovary (CHO) cells, kept under G418 selection
T1 sequence (O43614 1-444): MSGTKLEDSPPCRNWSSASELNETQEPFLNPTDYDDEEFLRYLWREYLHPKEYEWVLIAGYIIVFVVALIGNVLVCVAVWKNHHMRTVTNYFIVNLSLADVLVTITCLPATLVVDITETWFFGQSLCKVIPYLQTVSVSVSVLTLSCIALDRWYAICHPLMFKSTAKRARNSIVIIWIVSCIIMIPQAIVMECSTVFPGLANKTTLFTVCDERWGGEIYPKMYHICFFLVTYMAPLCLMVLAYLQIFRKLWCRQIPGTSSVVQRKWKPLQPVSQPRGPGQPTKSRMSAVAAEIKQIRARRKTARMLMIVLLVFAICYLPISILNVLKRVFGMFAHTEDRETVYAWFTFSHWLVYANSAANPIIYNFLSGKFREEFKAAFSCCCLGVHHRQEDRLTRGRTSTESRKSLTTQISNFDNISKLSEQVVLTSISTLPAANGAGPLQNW
Test: IPOne (IP-One) orexin receptor agonist assay in CHO cells expressing human OX2R
Format: cell-based
Details: for EC50: CHO cells expressing human OX2R, IP-One detection, 2 hours incubation, four parameter logistic fit, read-out: OX2R Potency, EC50; for % max agonist effect (Emax): human OX2R, percentage of sample raw value/mean max effect (reference compound at 1 uM with 100% activity)

Structure (SMILES) | EC50 [nM] | % max agonist effect (Emax) [%]
CS(=O)(=O)N[C@H]1CCN(c2nccc(O)c2F)[C@H]1CO[C@H]1CC[C@@H](c2c(F)ccc(F)c2F)CC1 [Example 161, N-((2R,3S)-1-(3-fluoro-4-hydroxypyridin-2-yl)-2-((((CIS)-4-(2,3,6-trifluorophenyl)cyclohexyl)oxy)methyl)pyrrolidin-3-yl)methanesulfonamide] | 2 | 100.3
CC(C)[C@H]1CC[C@@H](OC[C@H]2[C@@H](NS(C)(=O)=O)CCN2c2nccc(O)c2F)CC1 [Example 162, N-((2R,3S)-1-(3-fluoro-4-hydroxypyridin-2-yl)-2-((((CIS)-4-isopropylcyclohexyl)oxy)methyl)pyrrolidin-3-yl) methanesulfonamide] | 24.3 | 98.5
CS(=O)(=O)N[C@H]1CCN(c2ncc(F)c(O)c2F)[C@H]1CO[C@H]1CC[C@@H](c2cccc(F)c2)CC1 [Example 163, N-((2R,3S)-1-(3,5-difluoro-4-hydroxypyridin-2-yl)-2-((((CIS)-4-(3-fluorophenyl)cyclohexyl)oxy)methyl)pyrrolidin-3-yl)methanesulfonamide] | 1.4 | 101.8
C[C@@H]1C[C@H](NS(C)(=O)=O)[C@H](CO[C@H]2CC[C@@H](c3cccc(F)c3)CC2)N1c1[nH]ccc(=O)c1F [Example 164, N-((2R,3S,5R)-1-(3-fluoro-4-oxo-1,4-dihydropyridin-2-yl)-2-((((CIS)-4-(3-fluorophenyl)cyclohexyl)oxy)methyl)-5-methylpyrrolidin-3-yl)methanesulfonamide] | 0.72 | 98.6
